What was measured:
Details in all cases: 48 h
[1] = system: NOMO1; experiment: AUC of viability dose-response curve (% viability x log10 dose units); higher = less sensitive
Summary of the method: (§1)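 Area under the curve was integrated by trapezoidal rule from a log-logistic fit of normalised viability, with curves exceeding full viability scaled and quality-control failures removed. The fit had four parameters over log10 doses. Viability came from CellTiter-Glo One luminescence, normalised per plate to DMSO and cell-free wells, after leukemia cells adapted to each medium (500 or 1000 cells/well, 1536-well plates) were exposed to library compounds in DMSO for 48 h at 37°C. The 11 threefold doses ran from 47 μM to 0.79 nM.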

[2] = system: P12-Ichikawa; experiment: as above
Summary of the method: as §1

[3] = system: SEM cells; experiment: as above
Summary of the method: as §1

[4] = system: SEM cells; experiment: cell viability relative to DMSO control; higher = less cytotoxic
Summary of the method: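 NOMO1 or SEM (500 cells/well) or P12-Ichikawa (1000 cells/well) leukemia cells were adapted for at least four passages in each medium. They were seeded in 1536-well plates (5 μl) and pin-dosed with library compounds in DMSO over an 11-point threefold series, 47 μM to 0.79 nM. CellTiter-Glo One luminescence was read after 48 h at 37°C. Viability is the per-plate percentage relative to DMSO wells, with cell-free wells as background.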

[5] = RPMI 5 mM glucose + 10% dialyzed FBS

Q: What does the source list for CNC(=O)c1cc(Oc2ccc(NC(=O)Nc3ccc(Cl)c(C(F)(F)F)c3)cc2)ccn1?
A: AUC of viability dose-response curve ([1]; HPLM + 10% dialyzed FBS): 445; AUC of viability dose-response curve ([1]; RPMI 5 mM glucose + 10% FBS): 448; AUC of viability dose-response curve [1, 5]: 432; AUC of viability dose-response curve ([2]; HPLM + 10% dialyzed FBS): 457; AUC of viability dose-response curve ([2]; RPMI 5 mM glucose + 10% FBS): 448; AUC of viability dose-response curve [2, 5]: 448; AUC of viability dose-response curve ([3]; HPLM + 10% dialyzed FBS): 278; AUC of viability dose-response curve ([3]; RPMI 5 mM glucose + 10% FBS): 313; AUC of viability dose-response curve [3, 5]: 317; cell viability ([4]; RPMI 5 mM glucose + 10% FBS, 0.000781 µM): 108%; cell viability ([4]; RPMI 5 mM glucose + 10% FBS, 0.00234 µM): 112%; cell viability ([4]; RPMI 5 mM glucose + 10% FBS, 0.00702 µM): 89.1%; cell viability ([4]; RPMI 5 mM glucose + 10% FBS, 0.0211 µM): 89.8%; cell viability ([4]; RPMI 5 mM glucose + 10% FBS, 0.0632 µM): 70.8%; cell viability ([4]; RPMI 5 mM glucose + 10% FBS, 0.19 µM): 57.1%; cell viability ([4]; RPMI 5 mM glucose + 10% FBS, 0.569 µM): 54%; cell viability ([4]; RPMI 5 mM glucose + 10% FBS, 1.71 µM): 75.3%; cell viability ([4]; RPMI 5 mM glucose + 10% FBS, 5.12 µM): 63.9%; cell viability ([4]; RPMI 5 mM glucose + 10% FBS, 15.4 µM): 63%; cell viability ([4]; RPMI 5 mM glucose + 10% FBS, 46.1 µM): 5.7%; cell viability ([4]; RPMI 5 mM glucose + 10% dialyzed FBS, 0.000781 µM): 109%; cell viability ([4]; RPMI 5 mM glucose + 10% dialyzed FBS, 0.00234 µM): 108%; cell viability ([4]; RPMI 5 mM glucose + 10% dialyzed FBS, 0.00702 µM): 98.8%; cell viability ([4]; RPMI 5 mM glucose + 10% dialyzed FBS, 0.0211 µM): 79.3%; cell viability ([4]; RPMI 5 mM glucose + 10% dialyzed FBS, 0.0632 µM): 64.7%; cell viability ([4]; RPMI 5 mM glucose + 10% dialyzed FBS, 0.19 µM): 57.8%; cell viability ([4]; RPMI 5 mM glucose + 10% dialyzed FBS, 0.569 µM): 59.7%; cell viability ([4]; RPMI 5 mM glucose + 10% dialyzed FBS, 1.71 µM): 63.8%; cell viability ([4]; RPMI 5 mM glucose + 10% dialyzed FBS, 5.12 µM): 72.1%; cell viability ([4]; RPMI 5 mM glucose + 10% dialyzed FBS, 15.4 µM): 68.9%; cell viability ([4]; RPMI 5 mM glucose + 10% dialyzed FBS, 46.1 µM): 11.6%

Q: What does the source list for CCOC(=O)C(C)(C)Oc1ccc(Cl)cc1?
A: AUC of viability dose-response curve ([1]; HPLM + 10% dialyzed FBS): 464; AUC of viability dose-response curve ([1]; RPMI 5 mM glucose + 10% FBS): 453; AUC of viability dose-response curve [1, 5]: 453; AUC of viability dose-response curve ([2]; HPLM + 10% dialyzed FBS): 459; AUC of viability dose-response curve ([2]; RPMI 5 mM glucose + 10% FBS): 464; AUC of viability dose-response curve [2, 5]: 461; AUC of viability dose-response curve ([3]; HPLM + 10% dialyzed FBS): 465; AUC of viability dose-response curve ([3]; RPMI 5 mM glucose + 10% FBS): 471; AUC of viability dose-response curve [3, 5]: 476
